Values of other authors, collected in patent US8835453B2, “Sustained release implant for granisetron” (Development Center for Biotechnology, priority 2008, dated 2014).
Structures can show the parent of a compound that is named as a salt.

Settings: water and normal saline at 20° C.

## CN1C2CCCC1CC(NC(=O)c1nn(C)c3ccccc13)C2 (stereo not drawn) [Granisetron hydrochloride, endo-N-(9-methyl-9-azabicyclo[3.3.1]non-3-yl)-1-methyl-1H-indazole-3-carboxamide]
  solubility: soluble
